Test system: RA patients
Assay: Disease Activity Score 28 (DAS28(CRP)), Study 1
Type: in vivo, human
Text: As used herein, the term ‘DAS28(CRP)’ refers to a clinical scoring ranging from 2.0 to 10.0 to measure the disease status at a given point in time, and thereby follow the progress and improvement of rheumatoid arthritis in a patient, and includes a 28 tender and swollen joint count, CRP measurement from blood analysis, and a general health assessment on a visual analog scale. A DAS28(CRP) value below 2.6 is indicative of remission, A DAS28(CRP) between 2.6 and 3.2 is indicative of low disease activity, between 3.2 and 5.1 is indicative of moderate disease activity, whereas a DAS28(CRP) above 5.1 is linked to high disease activity. (Wells et al., 2008)
Double-blind, placebo-controlled add on study in subjects with moderately to severely active RA who have an inadequate response to methotrexate (MTX) (oral or parenteral).
Compound 1 (dosed as a [Compound 1:HCl:3H2O]) is dosed for twelve weeks once daily (q.d.) (50 mg, 100 mg or 200 mg) or twice daily (b.i.d.) (25 mg, 50 mg or 100 mg); or placebo.
At Week 12, the subjects on placebo who have not achieved 20% improvement in swollen joint count (SJC66) and tender joint count (TJC68) are re-randomized automatically to receive Compound 1 (dosed as a [Compound 1:HCl:3H2O]) either at 100 mg q.d. or 50 mg b.i.d. doses in a blinded fashion; subjects on 50 mg q.d. who have not achieved 20% improvement in SJC66 and TJC68 will be assigned to 100 mg q.d. and subjects on 25 mg b.i.d. that have not achieved a 20% improvement in SJC66 and TJC68 will be assigned to 50 mg b.i.d. Subjects who switch treatment at week 12 are handled as if they discontinued at week 12 for the purpose of statistical analysis, whereas subjects in the other groups will maintain their randomized treatment until Week 24.
The (DAS28(CRP)) is a system developed and validated by the European League Against Rheumatism (EULAR) to measure the progress and improvement of rheumatoid arthritis and has been extensively validated (Wells et al., 2008). The DAS28(CRP) scoring includes a 28 tender and swollen joint count, CRP measurement from blood analysis, and a general health assessment on a visual analog scale (Fransen et al., 2003).
DAS28(CRP) values range from 2.0 to 10.0, and more particularly reflect the following status: • Remission: DAS28(CRP)≤2.6 • Low Disease activity: 2.6<DAS28(CRP)≤3.2 • Moderate Disease Activity: 3.2<DAS28(CRP)≤5.1 • High Disease Activity: DAS28(CRP)>5.1
In practice, the DAS28(CRP) measurement involves the evaluation 28 different joints including in the measurement (proximal interphalangeal joints (10 joints), metacarpophalangeal joints (10), wrists (2), elbows (2), shoulders (2), and knees (2)). When looking at these joints, both the number of joints with tenderness upon touching and swelling are counted.
Firstly, the patient is asked to make a vertical mark on a 100 mm Visual Analog Scale (VAS) corresponding to their general health or global disease activity. Using an electronic touchscreen, the mark is measured from the left-hand side in mm to obtain the VAS value, which is used in the formula below.
Secondly, a swollen and tender joint examination is then performed on the patient. The swollen and tender joints are recorded. From this examination are obtained the total amount of swollen joints (SJC) and the total amount of tender joints (TJC), which are used in the formula below.
Thirdly, C-reactive protein (CRP) levels (in mg/dL) are measured.
Finally, the values obtained above (VAS, JTC28, SJC28, and CRP) are computed into the following Formula to obtain the DAS28(CRP) score.
The number of subjects (N) provided in each groups corresponds to the number of patients starting the study in each group, and the DAS28 (CRP) data reported below corresponds to the responding patients continuing for the entire 24 weeks on their initial treatment course.

O=C(Nc1nc2cccc(-c3ccc(CN4CCS(=O)(=O)CC4)cc3)n2n1)C1CC1 [Compound 1, cyclopropanecarboxylic acid {5-[4-(1,1-dioxo-thiomorpholin-4-ylmethyl)-phenyl]-[1,2,4]triazolo[1,5-a]pyridin-2yl}-amide]
DAS28(CRP) mean CFB (LOCF) - 24 weeks results (50 mg q.d., Week 24): −1.98 | DAS28(CRP) mean CFB (LOCF) - 12 weeks results (50 mg q.d., week 1): −0.65 | DAS28(CRP) mean CFB (LOCF) - 24 weeks results (50 mg q.d., week 1): −0.65 | DAS28(CRP) mean CFB (LOCF) - 12 weeks results (50 mg q.d., week 2): −0.94 | DAS28(CRP) mean CFB (LOCF) - 24 weeks results (50 mg q.d., week 2): −0.94 | DAS28(CRP) mean CFB (LOCF) - 24 weeks results (50 mg q.d., week 4): −1.28 | DAS28(CRP) mean CFB (LOCF) - 12 weeks results (50 mg q.d., week 12): −1.75 | DAS28(CRP) mean CFB (LOCF) - 24 weeks results (50 mg q.d., week 12): −1.75 | DAS28(CRP) mean CFB (LOCF) - 24 weeks results (100 mg q.d., week 1): −1.00 | DAS28(CRP) mean CFB (LOCF) - 12 weeks results (100 mg q.d., week 2): −1.50 | DAS28(CRP) mean CFB (LOCF) - 24 weeks results (100 mg q.d., week 16): −2.51 | DAS28(CRP) mean CFB (LOCF) - 24 weeks results (100 mg q.d., week 24): −2.70 | % patients reaching low disease activity and/or remission at week 24 (LOCF) (200 mg q.d.): 52% | DAS28(CRP) mean CFB (LOCF) - 24 weeks results (200 mg q.d., week 1): −1.17 | DAS28(CRP) mean CFB (LOCF) - 24 weeks results (200 mg q.d., week 2): −1.52 | DAS28(CRP) mean CFB (LOCF) - 12 weeks results (200 mg q.d., week 8): −2.30 | DAS28(CRP) mean CFB (LOCF) - 24 weeks results (200 mg q.d., week 16): −2.70 | DAS28(CRP) mean CFB (LOCF) - 24 weeks results (200 mg q.d., week 24): −2.80 | % patients reaching low disease activity and/or remission at week 24 (LOCF) (2 × 25 mg b.i.d.): 49% | DAS28(CRP) mean CFB (LOCF) - 12 weeks results (2 × 25 mg b.i.d., Week 1): −0.68 | DAS28(CRP) mean CFB (LOCF) - 24 weeks results (2 × 25 mg b.i.d., Week 1): −0.68 | DAS28(CRP) mean CFB (LOCF) - 12 weeks results (2 × 25 mg b.i.d., Week 4): −1.45 | DAS28(CRP) mean CFB (LOCF) - 24 weeks results (2 × 25 mg b.i.d., Week 4): −1.45 | DAS28(CRP) mean CFB (LOCF) - 12 weeks results (2 × 25 mg b.i.d., Week 8): −1.82 | DAS28(CRP) mean CFB (LOCF) - 24 weeks results (2 × 25 mg b.i.d., Week 8): −1.82 | DAS28(CRP) mean CFB (LOCF) - 12 weeks results (2 × 50 mg b.i.d., Week 1): −0.84 | DAS28(CRP) mean CFB (LOCF) - 24 weeks results (2 × 50 mg b.i.d., Week 1): −0.84 | DAS28(CRP) mean CFB (LOCF) - 12 weeks results (2 × 50 mg b.i.d., Week 12): −2.10 | DAS28(CRP) mean CFB (LOCF) - 24 weeks results (2 × 50 mg b.i.d., Week 12): −2.10 | DAS28(CRP) mean CFB (LOCF) - 24 weeks results (2 × 50 mg b.i.d., Week 20): −2.40 | DAS28(CRP) mean CFB (LOCF) - 24 weeks results (2 × 50 mg b.i.d., Week 24): −2.40 | DAS28(CRP) mean CFB (LOCF) - 12 weeks results (2 × 100 mg b.i.d., Week 8): −2.72 | DAS28(CRP) mean CFB (LOCF) - 24 weeks results (2 × 100 mg b.i.d., Week 8): −2.72
